“Also recorded” adds a separate entry of the source. Counter-ions that a name gives are not always drawn. Like-named read-outs stand apart in the source and are kept apart here.
Columns and labels:
BACE-1 [1] = molecular target: T1, BACE-1 (Homo sapiens, UniProt P56817); assay: BACE-1 inhibition, fluorescence resonance energy transfer (FRET) assay; format: biochemical; conditions: BACE-1 FRET assay; for inhibition at 20 µg/mL: 20 μg/mL
T1 construct: host or cells: insect cells
Method: The obtained target compounds were tested for their BACE-1 inhibitory activities using a fluorescence resonance energy transfer (FRET) assay, with OM99-2, a potent peptidomimetic inhibitor, as the positive control.
All synthesized compounds were tested for their BACE 1 inhibitor activities using a fluorescence resonance energy transfer (FRET) assay, which used purified insect-expressed BACE-1 and a specific substrate. An excitation wavelength of 355 nm and an emission wavelength of 460 nm were used to monitor the hydrolysis of substrate.

[2] = Bidirectional transport across MDCK monolayer cells; format: in vitro ADME, canine; conditions: dog
Method: (§1) Blood-brain barrier (BBB) permeation is critical for any AD therapeutic drug.
(§2) Madin-Darby canine kidney cell line (MDCK) was obtained from Peking Union Medical College (Beijing, China). The MDR1-transfected MDCK-MDR1 cells were established in Prof. Su Zeng’s laboratory as follows: MDCK cells were seeded onto six-well plates with a seeding density of 1 × 10^5 cells/well and cultured for 48 h. pcDNA3.1(+)/MDR1 plasmid vector was transfected into MDCK cells using Lipofectamine ^TM 2000 reagent according to the manufacturer’s instructions. Cells were subcultured in DMEM containing 600 µg/mL G418 for 96 h, and then replaced by DMEM containing 800 μg/mL G418 for a further 24 h. Cells were transferred to culture bottle and incubated in DMEM supplemented with 600 μg/mL G418 for 20 days. 19 stable transfected monoclonals grown on 96-well plates were obtained after dilution screening. Cells were cultured in DMEM with 10% fetal bovine serum, and grown in a humidified atmosphere of 5% CO2 at 37 °C. A solution of 0.25% trypsin-EDTA was used to detach the cells from flasks.
MDCK and MDCK-MDR1 cells were washed twice and equilibrated at 37 °C for 30 min with pre-warmed transport buffer. Hanks’ balanced salted solution (HBSS) containing HEPES (25 mM, pH 7.4). The transport buffer containing drug passed through a 0.2 μm membrane filter for degerming. For the absorption study (Apical to Basolateral), 0.5 mL incubation medium containing drug was added to the apical side as a donor chamber, 1.5 mL fresh incubation medium was added to the basolateral side as a receiver chamber. For the secretion study (Basolateral to Apical), 1.5 mL incubation medium containing drug was added to the basolateral side as a donor chamber, 0.5 mL fresh incubation medium was added to the apical side as a receiver chamber. Transport studies were conducted at 37 °C in a humidiﬁed incubator with shaking (50 rpm) for 1 h, and then the collected samples were analyzed by HPLC. […]

P-gp (MDR1) = assay: Bidirectional transport across MDCK-MDR1 monolayer cells; format: in vitro ADME, canine; conditions: dog
Method: as §1, §2
(§3) MDCK and MDCK-MDR1 cells were washed twice and equilibrated at 37 °C for 30 min with pre-warmed transport buffer. Hanks’ balanced salted solution (HBSS) containing HEPES (25 mM, pH 7.4). The transport buffer containing drug passed through a 0.2 μm membrane filter for degerming. For the absorption study (Apical to Basolateral), 0.5 mL incubation medium containing drug was added to the apical side as a donor chamber, 1.5 mL fresh incubation medium was added to the basolateral side as a receiver chamber. For the secretion study (Basolateral to Apical), 1.5 mL incubation medium containing drug was added to the basolateral side as a donor chamber, 0.5 mL fresh incubation medium was added to the apical side as a receiver chamber. Transport studies were conducted at 37 °C in a humidiﬁed incubator with shaking (50 rpm) for 1 h, and then the collected samples were analyzed by HPLC. Apparent permeability coefficients (Papp(A-B), Papp(B-A)) and efflux ratio (Pratio = (Papp(B-A)/Papp(A-B)) were used to evaluate the permeability and absorption profiles of compounds. P ratio is an important parameter to denote if a compound is a substrate of P-gp or not.

MDCK-MDR1 cells = assay: as above; format: in vitro ADME, canine
Method: as §1, §2, §3

BACE-1 [3] = molecular target: T1, BACE-1; conditions: cited from earlier work
[4] = parameters: method as in PMID 17156133; conditions: in words; cited from earlier work
[5] = parameters: method as in PMID 19409780; conditions: mice, 20 mg/kg iv, t = 30 min; cited from earlier work
[6] = pH 7.4, 55.6 μM 5e, 1 h, mean ± SD, n = 3
[7] = pH 7.4, MDCK-MDR1, 55.6 μM 5e, 1 h, mean ± SD, n = 3

T1 sequence (P56817 46-501): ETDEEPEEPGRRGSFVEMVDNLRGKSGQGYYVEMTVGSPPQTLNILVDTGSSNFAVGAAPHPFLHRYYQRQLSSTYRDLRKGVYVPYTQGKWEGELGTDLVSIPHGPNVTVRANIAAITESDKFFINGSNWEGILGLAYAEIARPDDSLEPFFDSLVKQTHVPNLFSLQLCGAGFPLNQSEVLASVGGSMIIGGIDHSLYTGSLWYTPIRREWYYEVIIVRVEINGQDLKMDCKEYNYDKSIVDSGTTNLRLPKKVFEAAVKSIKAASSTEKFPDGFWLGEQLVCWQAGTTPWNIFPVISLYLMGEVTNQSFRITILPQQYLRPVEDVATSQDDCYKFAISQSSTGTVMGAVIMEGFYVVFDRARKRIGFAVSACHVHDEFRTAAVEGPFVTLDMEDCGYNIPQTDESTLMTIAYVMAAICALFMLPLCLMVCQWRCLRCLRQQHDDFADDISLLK

Row | SMILES | melting point | inhibition at 20 µg/mL (BACE-1 [1]) | also measured
1 | Nc1nc(-c2cc(NC(=O)c3ccccc3)ccc2OCc2ccccc2)cs1 [3a, N-(3-(2-Aminothiazol-4-yl)-4-(benzyloxy)phenyl)benzamide] | – | 29.3 ± 1.3% | –
2 | Nc1nc(-c2cc(NC(=O)c3ccc(Cl)cc3)ccc2OCc2ccccc2)cs1 [3b, N-(3-(2-Aminothiazol-4-yl)-4-(benzyloxy)phenyl)-4-chlorobenzamide] | – | 20.4 ± 4.4% | –
3 | Nc1nc(-c2cc(NC(=O)c3ccc(C(F)(F)F)cc3)ccc2OCc2ccccc2)cs1 [3c, N-(3-(2-Aminothiazol-4-yl)-4-(benzyloxy)phenyl)-4-(trifluoromethyl)benzamide] | – | 33 ± 1.9% | –
4 | COc1ccc(C(=O)Nc2ccc(OCc3ccccc3)c(-c3csc(N)n3)c2)cc1 [3d, N-(3-(2-Aminothiazol-4-yl)-4-(benzyloxy)phenyl)-4-methoxybenzamide] | – | 29.5 ± 3.5% | –
5 | Nc1nc(-c2cc(NC(=O)c3cccc4ccccc34)ccc2OCc2ccccc2)cs1 [3e, N-(3-(2-Aminothiazol-4-yl)-4-(benzyloxy)phenyl)-1-naphthamide] | 198 to 200 °C | 55.3 ± 5.7% | IC50 (BACE-1 [1]): > 20 µM
6 | Nc1nc(-c2cc(NC(=O)c3cccnc3)ccc2OCc2ccccc2)cs1 [3f, N-(3-(2-Aminothiazol-4-yl)-4-(benzyloxy)phenyl)nicotinamide] | 212 to 213 °C | 36.8 ± 6.9% | –
7 | Nc1nc(-c2cc(NC(=O)Cc3ccccc3)ccc2OCc2ccccc2)cs1 [3g, N-(3-(2-Aminothiazol-4-yl)-4-(benzyloxy)phenyl)-2-phenylacetamide] | 190 to 193 °C | 8.9 ± 7% | –
8 | Nc1nc(-c2cc(NC(=O)CCc3ccccc3)ccc2OCc2ccccc2)cs1 [3h, N-(3-(2-Aminothiazol-4-yl)-4-(benzyloxy)phenyl)-3-phenylpropanamide] | 192 to 193 °C | 3.1 ± 2.5% | –
9 | Nc1nc(-c2cc(NC(=O)Cc3cccc4ccccc34)ccc2OCc2ccccc2)cs1 [3i, N-(3-(2-Aminothiazol-4-yl)-4-(benzyloxy)phenyl)-2-(naphthalen-1-yl)acetamide] | 246 to 247 °C | 11.3 ± 0.7% | –
10 | Nc1nc(-c2cc(NC(=O)c3ccccc3)ccc2OCc2ccccc2)co1 [4a, N-(3-(2-Aminooxazol-4-yl)-4-(benzyloxy)phenyl)benzamide] | – | 38.8 ± 0.3% | –
11 | CCNc1cc(C(=O)N[C@@H](Cc2ccccc2)[C@H](O)CNCc2cccc(C(F)(F)F)c2)c(F)c(N2CCCCS2(=O)=O)c1 [GSK188909] | – | – | IC50 (BACE-1 [3]): 0.005 µM; blood-brain barrier permeability [4]: poor blood-brain barrier permeability
12 | NC1=NC(c2ccccc2)(c2ccccc2)C2=NCCCN12 [compound 2] | – | – | [brain] [5]: 15 µM

Continued, in another order:

Row | melting point | inhibition at 20 µg/mL (BACE-1 [1]) | SMILES | also measured
13 | 222 to 225 °C | – | NC1=NN=C(c2cc(NC(=O)c3ccc(C(F)(F)F)cc3)ccc2OCc2ccccc2)CS1 (as salt: hydrobromid) [5c, N-(3-(2-Amino-6H-1,3,4-thiadiazin-5-yl)-4-(benzyloxy)phenyl)-4-(trifluoromethyl)-benzamide hydro-bromide] | –
14 | – | 49.9 ± 0.2% | Nc1nc(-c2cc(NC(=O)c3ccc(Cl)cc3)ccc2OCc2ccccc2)co1 [4b, N-(3-(2-Aminooxazol-4-yl)-4-(benzyloxy)phenyl)-4-chlorobenzamide] | –
15 | 225 to 227 °C | 47.5 ± 9.9% | Nc1nc(-c2cc(NC(=O)c3ccc(C(F)(F)F)cc3)ccc2OCc2ccccc2)co1 [4c, N-(3-(2-Aminooxazol-4-yl)-4-(benzyloxy)phenyl)-4-(trifluoromethyl)benzamide] | –
16 | – | 34.4 ± 5.7% | COc1ccc(C(=O)Nc2ccc(OCc3ccccc3)c(-c3coc(N)n3)c2)cc1 [4d, N-(3-(2-Aminooxazol-4-yl)-4-(benzyloxy)phenyl)-4-methoxybenzamide] | –
17 | 195 to 197 °C | 42.6 ± 3.2% | Nc1nc(-c2cc(NC(=O)c3cccc4ccccc34)ccc2OCc2ccccc2)co1 [4e, N-(3-(2-Aminooxazol-4-yl)-4-(benzyloxy)phenyl)-1-naphthamide] | –
18 | 246 to 247 °C | 64.2 ± 0.5% | Br.NC1=NN=C(c2cc(NC(=O)c3ccccc3)ccc2OCc2ccccc2)CS1 [5a, N-(3-(2-Amino-6H-1,3,4-thiadiazin-5-yl)-4-(benzyloxy)phenyl)benzamide hydrobromide] | IC50 (BACE-1 [1]): 16.7 µM
19 | 217 to 218 °C | 76 ± 2.5% | Br.NC1=NN=C(c2cc(NC(=O)c3ccc(Cl)cc3)ccc2OCc2ccccc2)CS1 [5b, N-(3-(2-Amino-6H-1,3,4-thiadiazin-5-yl)-4-(benzyloxy)phenyl)-4-chlorobenzamide hydrobromide] | IC50 (BACE-1 [1]): > 20 µM
20 | – | 46.9 ± 7.5% | NC1=NN=C(c2cc(NC(=O)c3ccc(C(F)(F)F)cc3)ccc2OCc2ccccc2)CS1 [5c, N-(3-(2-Amino-6H-1,3,4-thiadiazin-5-yl)-4-(benzyloxy)phenyl)-4-(trifluoromethyl)-benzamide hydro-bromide] | –
21 | 181 to 182 °C | 84.9 ± 16.7% | Br.COc1ccc(C(=O)Nc2ccc(OCc3ccccc3)c(C3=NN=C(N)SC3)c2)cc1 [5d, N-(3-(2-Amino-6H-1,3,4-thiadiazin-5-yl)-4-(benzyloxy)phenyl)-4-methoxybenzamide hydrobromide] | IC50 (BACE-1 [1]): > 20 µM
22 | 219 to 221 °C | 60 ± 3.1% | Br.NC1=NN=C(c2cc(NC(=O)c3cccc4ccccc34)ccc2OCc2ccccc2)CS1 [5e, N-(3-(2-Amino-6H-1,3,4-thiadiazin-5-yl)-4-(benzyloxy)phenyl)-1-naphthamide hydrobromide] | Papp A→B at 1 h, 55.6 μM [2, 6]: 282 ± 64.5 nm/s; Papp B→A at 1 h, 55.6 μM [2, 6]: 277 ± 28.7 nm/s; efflux ratio at 1 h, 55.6 μM ([2]; pH 7.4, Papp(B-A)/Papp(A-B)): 0.98; IC50 (BACE-1 [1]): 9.9 µM; efflux ratio at 1 h, 55.6 μM (P-gp (MDR1); MDCK-MDR1, pH 7.4, MDCK-MDR1, Papp(B-A)/Papp(A-B), read-out: Efflux ratio): 0.7; efflux ratio at 1 h, 55.6 μM (P-gp (MDR1); MDCK-MDR1, pH 7.4, MDCK-MDR1 versus MDCK, read-out: Net efflux ratio): 0.71; Papp A→B at 1 h, 55.6 μM (P-gp (MDR1); [7]): 318 ± 18.5 nm/s; Papp B→A at 1 h, 55.6 μM (P-gp (MDR1); [7]): 222 ± 12.4 nm/s; Blood-brain barrier permeability assessment (MDCK-MDR1 cells; MDCK and MDCK-MDR1 model, in words): high brain uptake potential; also recorded: good penetration ability through the blood-brain barrier; also recorded: favorable blood-brain barrier permeability; P-gp substrate assessment (MDCK-MDR1 cells; net efflux ratio less than FDA's recommendation of 2): not a P-gp substrate

— publication PMC6269915, “Design, Synthesis and Evaluation of 3-(2-Aminoheterocycle)-4-benzyloxyphenylbenzamide Derivatives as BACE-1 Inhibitors” (Molecules, 2013)
